# According to the SangsterLogP compilation:
# What was measured:
# [1] = method code SF, from DOI: 10.1016/0223-5234(90)90118-m
logP,logP [1],SMILES
3.82,,O=[N+]([O-])c1ccc(S(=O)(=O)Nc2ccc3nn(C4CCCC4)nc3c2)cc1
3.4,,CC(C)(C)C(=O)c1cccc2nn(C3CCCC3)nc12
,2.45,CC(=O)Nc1ccc2nn(C3CCCC3)nc2c1
3.91,,Cc1ccc(S(=O)(=O)Nc2ccc3nn(C4CCCC4)nc3c2)cc1
,3.43,CCOC(=O)Nc1ccc2nn(C3CCCC3)nc2c1
,4.12,O=C(Nc1ccc2nn(C3CCCC3)nc2c1)C(Cl)(Cl)Cl
4.11,,O=C(Nc1ccc2nn(C3CCCC3)nc2c1)c1ccc(Cl)cc1
,4.95,O=C(Nc1ccc2nn(C3CCCC3)nc2c1)c1ccc(C(F)(F)F)cc1
,3.75,O=C(Nc1ccc2nn(C3CCCC3)nc2c1)c1ccc([N+](=O)[O-])cc1
,3.85,O=C(Nc1ccc2nn(C3CCCC3)nc2c1)c1ccccc1
,4.03,COc1ccc(C(=O)Nc2ccc3nn(C4CCCC4)nc3c2)cc1
,4.28,CC(C)COC(=O)Nc1ccc2nn(C3CCCC3)nc2c1
5.32,,O=C(Nc1ccc2nn(C3CCCC3)nc2c1)c1ccc(Cl)c(Cl)c1
3.87,,COc1cc(C(=O)Nc2ccc3nn(C4CCCC4)nc3c2)cc(OC)c1OC
,2.78,O=C(CCl)Nc1ccc2nn(C3CCCC3)nc2c1
,2.44,CS(=O)(=O)Nc1ccc2nn(C3CCCC3)nc2c1
2.73,,CC(=O)N(C(C)=O)c1ccc2nn(C3CCCC3)nc2c1
3.4,,O=C(Nc1ccc2nn(C3CCCC3)nc2c1)C(Cl)Cl
